Experiments:
[1] = Human cytosol stability assay, liver cytosol; settings: for effect of inhibitor on rate of progesterone depletion: presence of NADPH, inhibitor 100 µM; for half-life at 1 µM: human, t1/2 (min)
Description: (§3) Progesterone stability was assessed in intestinal and liver cytosol in the presence or absence of NADPH cofactor and specific enzyme inhibitors. For both intestinal and liver cytosol, the protein concentration was adjusted to 0.5 mg/mL. Both human liver and intestinal cytosol (with 0.1 mM EDTA) were then pre-incubated for 10 min in a thermomixer comfort by Eppendorf in an RNAse/DNAse 96-well plate until reaching a temperature of 37 °C. Next, a final concentration of 100 µM of enzyme inhibitors were added to the cytosol. […] The enzyme inhibitors used during this study were: Epalrestat (AKR1B1 inhibitor), Diazepam (AKR1C inhibitor), Finasteride (AKR1D1 inhibitor), Diazepam + Flufenamic Acid (AKR1C inhibitor cocktail), Menadione (aldehyde oxidase inhibitor) and Allopurinol (xanthine oxidase inhibitor).
(§4) Next, the mixtures were incubated for an additional 5 min, and NADPH was added at a final concentration of 1 mM. Finally, progesterone (1 µM) was added and mixed by pipetting to initiate the reaction. Immediately following reaction initiation, a 50 µL sample was taken. The sample was then diluted in 100 µL of acetonitrile to terminate enzymatic reaction. Samples were centrifuged at 4 °C and 2500 rpm for 30 min. Following centrifugation, the supernatant was removed and diluted 1:1 with milli-Q water. […] This process was followed for sampling at all required time intervals.
(§5) Liquid chromatography with tandem mass spectrometry (LC MS/MS) was used to analyse samples obtained from both cytosol and homogenate stability assays (see Appendix A Figure A1 for example spectra). […] The column used was Aquity HSS T3 (1.8 µm) 2.1 × 50 mm (Water Ltd., Herts, UK), and the samples were run with an injection volume of 8 µL at 70 °C. A solvent system and gradient with a flow rate of 600 µL/minute was used to perform this analysis. The mobile phase consisted of 10 mM ammonium formate with 0.1% v/v formic acid in water (A) and acetonitrile (B).
(§6) The percent of substrate present at each timepoint relative to the 0 min sample was calculated from the LC-MS/MS peak area ratios (compound peak area/internal standard peak area). […] The Kolmogorov–Smirnov test was used to assess normality followed by Student’s t-test. Results were considered statistically significant when p < 0.05.

[2] = Tissue homogenate stability assay, human liver homogenate; assay type: in vitro ADME; settings: for half-life: human, liver homogenate
Description: (§1) Progesterone stability was determined in rat and human intestinal mucosa and liver homogenates. In addition, progesterone was incubated in stock solution containing phosphate-buffered saline, 0.1% Tween80 and 1% DMSO. […] Stability assays were carried out either in the presence or absence of 1mM of the cofactor NADPH. The physiological concentration of NADPH was approximately 100 µM [26]. However, for the purpose of this research, a concentration of 1 mM was used to ensure an excess of co-factor was available and not rate-limited throughout the incubation period.
(§2) The protein concentration for the rat and human liver and intestinal homogenates was adjusted to 5 mg/mL. […] A final concentration of 1 µM progesterone and 1 mM NADPH (where required) was added to the homogenate, and samples were immediately taken (t–0). Next, the homogenate solution was incubated with shaking (700 rpm) at 37 °C, and further samples were taken at timed intervals. To stop the enzymatic reaction, samples were immediately diluted in ice-cold acetonitrile at a ratio of 1:3 sample:acetonitrile. The samples were then centrifuged at 3000 rpm for 30 min to pellet the homogenates.

[3] = Tissue homogenate stability assay, rat liver homogenate; assay type: in vitro ADME; settings: for half-life: Sprague Dawley, rat
Description: as §1, §2

[4] = Tissue homogenate stability assay, human intestinal homogenate; assay type: in vitro ADME; settings: for half-life: human
Description: as §1, §2

[5] = Tissue homogenate stability assay, rat intestinal homogenate; assay type: in vitro ADME; settings: for half-life: Sprague Dawley, rat
Description: as §1, §2

[6] = Stability in control media (phosphate-buffered saline, 0.1% Tween80, 1% DMSO, pH 7.4); assay type: physicochemical
Description: as §1

[7] = Human cytosol stability assay, intestinal cytosol; settings: for half-life at 1 µM: human, human intestinal cytosol, t1/2 (min)
Description: as §3, §4, §5, §6

[8] = human liver homogenate, no NADPH
[9] = rat liver homogenate + 1 mM NADPH
[10] = human intestinal homogenate + 1 mM NADPH
[11] = human intestinal homogenate, no NADPH
[12] = rat intestinal homogenate + 1 mM NADPH
[13] = human liver cytosol + NADPH + AKR1B1 inhibitor (Epalrestat 100 µM)
[14] = human liver cytosol + NADPH + AKR1C1 cocktail (Diazepam + Flufenamic Acid)
[15] = human liver cytosol + NADPH, no inhibitor
[16] = human intestinal cytosol + NADPH + AKR1B inhibitor (Epalrestat 100 µM)
[17] = human intestinal cytosol + NADPH, no inhibitor

SMILES: CC1=CC(=O)c2ccccc2C1=O [Menadione]
- effect of inhibitor on rate of progesterone depletion ([1]; human liver cytosol): not deemed significant

SMILES: CN1C(=O)CN=C(c2ccccc2)c2cc(Cl)ccc21 [diazepam, Diazepam]
- effect of inhibitor on rate of progesterone depletion ([1]; human liver cytosol): no significant difference

SMILES: CC(=O)[C@H]1CC[C@H]2[C@@H]3CCC4=CC(=O)CC[C@]4(C)[C@H]3CC[C@]12C [Progesterone]
- % Drug Remaining After 60 min ([2]; human liver homogenate + 1 mM NADPH): 0.27 ± 0.26%
- % of original concentration remaining ([2]; human liver homogenate + NADPH, within 10 min of incubation): less than 2%
- % of the drug remaining ([2]; human liver homogenate, absence of NADPH, after two hours of incubation): over 40%
- % Drug Remaining After 60 min [2, 8]: 43.32 ± 4.84%
- half-life ([2]; human liver homogenate + 1 mM NADPH, 1 µM progesterone, 5 mg/mL protein, 37 °C): 0.045 ± 0.000833 h
- half-life [2, 8]: 0.649 ± 0.195 h
- half-life ([3]; liver homogenate, pH 7.4, rat liver homogenate, no NADPH): 0.663 ± 0.169 h
- half-life ([3]; rat liver homogenate, pH 7.4, rat liver homogenate + 1 mM NADPH): 0.045 h
- t1/2 [3, 9]: 2.72 ± 0.05 min
- % Drug Remaining After 60 min [3, 9]: 0.03 ± 0.0005%
- % of original concentration remaining ([3]; rat liver homogenate + NADPH, within 10 min of incubation): less than 2%
- % of the drug remaining ([3]; rat liver homogenate, absence of NADPH, after two hours of incubation): over 40%
- % Drug Remaining After 60 min ([3]; rat liver homogenate, no NADPH): 46.04 ± 0.69%
- t1/2 [4, 10]: 2.6203 ± 0.4568 h
- % Drug Remaining After 60 min [4, 10]: 73.92 ± 5.11%
- % Drug Remaining After 60 min ([4]; human intestinal homogenate + 1 mM NADPH, listed as progesterone): 74%
- % Drug Remaining After 60 min [4, 11]: 75.82 ± 9.35%
- % Drug Remaining After 60 min ([4]; human intestinal homogenate, no NADPH, listed as progesterone): 76%
- half-life ([4]; human intestinal homogenate, human intestinal homogenate + 1 mM NADPH): 2.62 h
- half-life [4, 11]: 2.6 ± 0.229 h
- half-life ([5]; rat intestinal homogenate, pH 7.4, rat intestinal homogenate + 1 mM NADPH): 3.29 h
- half-life ([5]; rat intestinal homogenate, pH 7.4, rat intestinal homogenate, no NADPH): 5.87 ± 0.614 h
- t1/2 [5, 12]: 3.2938 ± 0.0485 h
- % Drug Remaining After 60 min [5, 12]: 76.67 ± 4.72%
- % Drug Remaining After 60 min ([5]; rat intestinal homogenate + 1 mM NADPH, listed as progesterone): 77%
- % Drug Remaining After 60 min ([5]; rat intestinal homogenate, no NADPH): 90.93 ± 2.19%
- % Drug Remaining After 60 min ([5]; rat intestinal homogenate, no NADPH, listed as progesterone): over 90%
- % detectable in control media ([6]; after 2 h in control media): 99%
- time stable in stock solution ([6]; phosphate-buffered saline, 0.1% Tween80, 1% DMSO, pH 7.4, 1 µM): up to 6 h
- t1/2 [1, 13]: 0.3135 ± 0.016 h
- % Drug Remaining After 60 min [1, 13]: 6.6 ± 6.24%
- t1/2 [1, 14]: 0.5927 ± 0.111 h
- % Drug Remaining After 60 min [1, 14]: 33.5 ± 1.72%
- % Drug Remaining After 60 min ([1]; human liver cytosol + NADPH + AKR1C1 inhibitor (Diazepam 100 µM)): 0.11 ± 0.04%
- % Drug Remaining After 60 min ([1]; human liver cytosol + NADPH + AKR1D1 inhibitor (Finasteride 100 µM)): 7.85 ± 6.31%
- % Drug Remaining After 60 min ([1]; human liver cytosol + NADPH + AOX inhibitor (Menadione 100 µM)): 0.97 ± 0.88%
- t1/2 [1, 15]: 0.2288 ± 0.0135 h
- % Drug Remaining After 60 min [1, 15]: 0.04 ± 0.01%
- % Drug Remaining After 60 min ([1]; human liver cytosol, absence of NADPH, + AOX inhibitor (Menadione 100 µM)): 69.14 ± 2.91%
- % Drug Remaining After 60 min ([1]; human liver cytosol, absence of NADPH, + XAO inhibitor (Allopurinol 100 µM)): 57.09 ± 2.01%
- half-life at 1 µM ([1]; human liver cytosol, human liver cytosol + NADPH + AKR1C1 cocktail (Diazepam + Flufenamic Acid)): 0.593 h
- half-life at 1 µM ([1]; human liver cytosol, human liver cytosol + NADPH, no inhibitor): 0.217 h
- half-life at 1 µM ([1]; human liver cytosol, liver cytosol section (Figure 4), absence of NADPH, no inhibitor, line printed as Human intestinal Cytosol): 1.72 ± 0.156 h
- half-life at 1 µM ([1]; human liver cytosol, with Allopurinol (xanthine oxidase inhibitor), 100 µM, human liver cytosol, absence of NADPH, + XAO inhibitor (Allopurinol 100 µM)): 1.66 ± 0.152 h
- half-life at 1 µM ([1]; human liver cytosol, with Diazepam (AKR1C1 inhibitor), 100 µM, human liver cytosol + NADPH + AKR1C1 inhibitor (Diazepam 100 µM)): 0.235 ± 0.004 h
- half-life at 1 µM ([1]; human liver cytosol, with Epalrestat (AKR1B1 inhibitor), 100 µM, human liver cytosol + NADPH + AKR1B1 inhibitor (Epalrestat 100 µM)): 0.3 h
- half-life at 1 µM ([1]; human liver cytosol, with Finasteride (AKR1D1 inhibitor), 100 µM, human liver cytosol + NADPH + AKR1D1 inhibitor (Finasteride 100 µM)): 0.308 ± 0.0283 h
- half-life at 1 µM ([1]; human liver cytosol, with Menadione (aldehyde oxidase inhibitor), 100 µM, human liver cytosol, absence of NADPH, + AOX inhibitor (Menadione 100 µM)): 2.21 ± 0.0782 h
- half-life at 1 µM ([1]; liver cytosol, with Menadione 100 µM (aldehyde oxidase inhibitor), human liver cytosol + NADPH + AOX inhibitor (Menadione 100 µM)): 0.258 ± 0.0338 h
- % Drug Remaining After 60 min ([1]; liver cytosol section (Figure 4), absence of NADPH, no inhibitor, line printed as Human intestinal Cytosol): 56.6 ± 2.07%
- t1/2 [7, 16]: 3.0687 ± 0.3158 h
- % Drug Remaining After 60 min [7, 16]: 80.87 ± 7.84%
- % Drug Remaining After 60 min ([7]; human intestinal cytosol + NADPH + AKR1C1 inhibitor (Diazepam 100 µM)): 77.38 ± 6.37%
- % Drug Remaining After 60 min ([7]; human intestinal cytosol + NADPH + AKR1C cocktail (Diazepam + Flufenamic Acid)): 73.56 ± 3.69%
- % Drug Remaining After 60 min ([7]; human intestinal cytosol + NADPH + AKR1D1 inhibitor (Finasteride 100 µM)): 79.56 ± 4.44%
- t1/2 [7, 17]: 2.1587 ± 0.0458 h
- % Drug Remaining After 60 min [7, 17]: 72.51 ± 6.48%
- half-life at 1 µM [7, 17]: 2.16 h
- half-life at 1 µM ([7]; with Epalrestat (AKR1B inhibitor), 100 µM, human intestinal cytosol + NADPH + AKR1B inhibitor (Epalrestat 100 µM)): 3.07 h
- half-life at 1 µM ([7]; with Finasteride (AKR1D1 inhibitor), 100 µM, human intestinal cytosol + NADPH + AKR1D1 inhibitor (Finasteride 100 µM)): 3.03 ± 0.0732 h

— publication PMC8537901, “Progesterone Metabolism by Human and Rat Hepatic and Intestinal Tissue” (Pharmaceutics, 2021)
